molecular target: TBK1 (Homo sapiens (Human), UniProt Q9UHD2); test: TBK1 low ATP kinase assay (in vitro assay 1); assay type: biochemical; conditions: TBK1 low ATP kinase assay IC50, in vitro assay 1
Sequence (Q9UHD2 whole entry): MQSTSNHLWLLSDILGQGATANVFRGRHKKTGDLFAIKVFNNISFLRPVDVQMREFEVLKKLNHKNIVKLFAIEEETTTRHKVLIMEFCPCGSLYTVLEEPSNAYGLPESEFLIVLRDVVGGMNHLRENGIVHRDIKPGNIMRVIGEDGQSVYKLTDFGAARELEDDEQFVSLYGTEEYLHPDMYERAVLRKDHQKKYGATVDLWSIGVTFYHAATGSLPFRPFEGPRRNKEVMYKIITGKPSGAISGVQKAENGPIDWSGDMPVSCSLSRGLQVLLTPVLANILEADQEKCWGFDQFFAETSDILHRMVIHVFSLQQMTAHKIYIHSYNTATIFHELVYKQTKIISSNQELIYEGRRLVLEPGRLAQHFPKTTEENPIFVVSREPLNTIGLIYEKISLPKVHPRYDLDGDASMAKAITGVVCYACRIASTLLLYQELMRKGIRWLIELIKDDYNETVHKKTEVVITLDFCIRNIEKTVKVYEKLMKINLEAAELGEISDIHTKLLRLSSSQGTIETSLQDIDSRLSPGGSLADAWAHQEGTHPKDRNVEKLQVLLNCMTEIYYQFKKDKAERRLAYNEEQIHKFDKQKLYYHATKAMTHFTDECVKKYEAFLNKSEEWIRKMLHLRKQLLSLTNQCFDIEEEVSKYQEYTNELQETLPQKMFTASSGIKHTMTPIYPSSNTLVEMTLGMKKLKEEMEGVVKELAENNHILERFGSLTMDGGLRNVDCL

In the case of `Cc1cc(-c2ccc3nc(Nc4cc(C(C)N5CCN(C(=O)CC(F)(F)F)CC5)ccn4)[nH]c3c2)ncn1` (single isomer, unassigned) [Example 30.03.01.A, 3,3,3-trifluoro-1-{4-[(1R or 1S)-1-(2-{[6-(6-methylpyrimidin-4-yl)-1H-benzimidazol-2-yl]amino}pyridin-4-yl)ethyl]piperazin-1-yl}propan-1-one], the IC50 is reported as 18 nM.

same assay, conditions: in vitro assay 1, read-out: TBK1 low ATP kinase assay IC50

First: CCc1nccc(-c2ccc3nc(Nc4cc(CN5CCN(C(=O)OC(C)(C)C)CC5)ccn4)[nH]c3c2)n1 [Example 28.01, tert-butyl 4-[(2-{[6-(2-ethylpyrimidin-4-yl)-1H-benzimidazol-2-yl]amino}pyridin-4-yl)methyl]piperazine-1-carboxylate]
Second: CCN(C)c1cc(-c2ccc3nc(Nc4cc(CN5CCN(C(=O)OC(C)(C)C)CC5)ccn4)[nH]c3c2)ncn1 [Example 148.01, tert-butyl 4-({2-[(6-{6-[ethyl(methyl)amino]pyrimidin-4-yl}-1H-benzimidazol-2-yl)amino]pyridin-4-yl}methyl)piperazine-1-carboxylate]
The IC50 of the first is 4.4-fold higher: 111 nM for the first, 25 nM for the second. The second is the more potent here.

Going from `CC(c1ccnc(Nc2nc3ccc(-c4cc(C(F)(F)F)nn4C)cc3[nH]2)c1)N1CCN(C(=O)C2CC2)CC1` (single isomer, unassigned) [Example 88.03, cyclopropyl(4-{(1R or 1S)-1-[2-({6-[1-methyl-3-(trifluoromethyl)-1H-pyrazol-5-yl]-1H-benzimidazol-2-yl}amino)pyridin-4-yl]ethyl}piperazin-1-yl)methanone] to `CC(c1ccnc(Nc2nc3ccc(-c4cnn(C(C)C5CC5)c4)cc3[nH]2)c1)N1CCN(C(=O)CC(F)(F)F)CC1` (single isomer, unassigned) [Example 74.02, 1-{4-[(1R or 1S)-1-{2-[(6-{1-[(1RS)-1-cyclopropylethyl]-1H-pyrazol-4-yl}-1H-benzimidazol-2-yl)amino]pyridin-4-yl}ethyl]piperazin-1-yl}-3,3,3-trifluoropropan-1-one], the IC50 falls from 990 nM to 19 nM (52-fold).

First: COc1cncnc1-c1ccc2nc(Nc3cc(CN4CCN(S(=O)(=O)N5CCC(OC)CC5)CC4)ccn3)[nH]c2c1 [Example 35.01.17, N-[4-({4-[(4-methoxypiperidin-1-yl)sulfonyl]piperazin-1-yl}methyl)pyridin-2-yl]-6-(5-methoxypyrimidin-4-yl)-1H-benzimidazol-2-amine]
Second: COc1c(NC2CC2)ncnc1-c1ccc2nc(Nc3cc(CN4CCN(C(=O)C5CC5)CC4)ccn3)[nH]c2c1 [Example 108.03, cyclopropyl(4-{[2-({6-[6-(cyclopropylamino)-5-methoxypyrimidin-4-yl]-1H-benzimidazol-2-yl}amino)pyridin-4-yl]methyl}piperazin-1-yl)methanone]
The IC50 of the first is 4.4-fold higher: 39.2 nM for the first, 8.9 nM for the second.

Compared with `CN(C)c1cc(-c2ccc3nc(Nc4cc(CN5CCN(C(=O)CC(F)(F)F)CC5)ccn4)[nH]c3c2)ncn1` [Example 143.02, 1-(4-{[2-({6-[6-(dimethylamino)pyrimidin-4-yl]-1H-benzimidazol-2-yl}amino)pyridin-4-yl]methyl}piperazin-1-yl)-3,3,3-trifluoropropan-1-one], `O=C(CC(F)(F)F)N1CCN(Cc2ccnc(Nc3nc4ccc(-c5cc(N6CCCCC6)ncn5)cc4[nH]3)c2)CC1` [Example 145.02, 3,3,3-trifluoro-1-(4-{[2-({6-[6-(piperidin-1-yl)pyrimidin-4-yl]-1H-benzimidazol-2-yl}amino)pyridin-4-yl]methyl}piperazin-1-yl)propan-1-one] is 2.8-fold lower in IC50: 8.2 nM for the first, 2.9 nM for the second.

First: CC(c1ccnc(Nc2nc3ccc(-c4cc(N5CCC5)ncn4)cc3[nH]2)c1)N1CCN(C(=O)OC(C)(C)C)CC1 (single isomer, unassigned) [Example 115.01, tert-butyl 4-{(1R or 1S)-1-[2-({6-[6-(azetidin-1-yl)pyrimidin-4-yl]-1H-benzimidazol-2-yl}amino)pyridin-4-yl]ethyl}piperazine-1-carboxylate]
Second: CC(c1ccnc(Nc2nc3ccc(-c4cnn(CC5CCC5)c4)cc3[nH]2)c1)N1CCN(C(=O)OC(C)(C)C)CC1 (single isomer, unassigned) [Example 59.01.01, tert-butyl 4-{(1R or 1S)-1-[2-({6-[1-(cyclobutylmethyl)-1H-pyrazol-4-yl]-1H-benzimidazol-2-yl}amino)pyridin-4-yl]ethyl}piperazine-1-carboxylate]
The IC50 of the first is 10-fold lower: 1.4 nM for the first, 14.2 nM for the second.

Going from `CC(c1ccnc(Nc2nc3ccc(-c4cc(N5CC(F)(F)C5)ncn4)cc3[nH]2)c1)N1CCN(C(=O)CC(F)(F)F)CC1` (single isomer, unassigned) [Example 116.03, 1-(4-{(1R or 1S)-1-[2-({6-[6-(3,3-difluoroazetidin-1-yl)pyrimidin-4-yl]-1H-benzimidazol-2-yl}amino)pyridin-4-yl]ethyl}piperazin-1-yl)-3,3,3-trifluoropropan-1-one] to `Cc1cc(CN2CCN(C(=O)CC(F)(F)F)CC2)cc(Nc2nc3ccc(-c4ccncn4)cc3[nH]2)n1` [Example 23.02.01, 3,3,3-trifluoro-1-{4-[(2-methyl-6-{[6-(pyrimidin-4-yl)-1H-benzimidazol-2-yl]amino}pyridin-4-yl)methyl]piperazin-1-yl}propan-1-one], the IC50 rises from 1.3 nM to 20.4 nM (16-fold).

First: CC(C)Cc1noc(-c2ccc3nc(Nc4cc(CN5CCN(C(=O)CC(F)(F)F)CC5)ccn4)[nH]c3c2)n1 [Example 18.01, 3,3,3-trifluoro-1-(4-{[2-({6-[3-(2-methylpropyl)-1,2,4-oxadiazol-5-yl]-1H-benzimidazol-2-yl}amino)pyridin-4-yl]methyl}piperazin-1-yl)propan-1-one]
Second: CC(C)Oc1cnccc1-c1ccc2nc(Nc3cc(CN4CCN(C(=O)CC(F)(F)F)CC4)ccn3)[nH]c2c1 [Example 06.01, 3,3,3-trifluoro-1-(4-{[2-({6-[3-(propan-2-yloxy)pyridin-4-yl]-1H-benzimidazol-2-yl}amino)pyridin-4-yl]methyl}piperazin-1-yl)propan-1-one]
The IC50 of the first is 17-fold higher: 72.4 nM for the first, 4.31 nM for the second.

First: CC(C)(C)OC(=O)N1CCN(Cc2ccnc(Nc3nc4ccc(-c5cc(OCC6CCC6)ncn5)cc4[nH]3)c2)CC1 [Example 159.01, tert-butyl 4-{[2-({6-[6-(cyclobutylmethoxy)pyrimidin-4-yl]-1H-benzimidazol-2-yl}amino)pyridin-4-yl]methyl}piperazine-1-carboxylate]
Second: O=C(C1CC1)N1CCN(Cc2ccnc(Nc3nc4ccc(-c5cc(NCC6CC6)ncn5)cc4[nH]3)c2)CC1 [Example 142.03, cyclopropyl[4-({2-[(6-{6-[(cyclopropylmethyl)amino]pyrimidin-4-yl}-1H-benzimidazol-2-yl)amino]pyridin-4-yl}methyl)piperazin-1-yl]methanone]
The IC50 of the first is 100-fold higher: 310 nM for the first, 3 nM for the second. The second is the more potent here.

First: COCc1cc(-c2ccc3nc(Nc4cc(CN5CCN(C(=O)C6(C(F)(F)F)CC6)CC5)ccn4)[nH]c3c2)ncn1 [Example 79.03, (4-{[2-({6-[6-(methoxymethyl)pyrimidin-4-yl]-1H-benzimidazol-2-yl}amino)pyridin-4-yl]methyl}piperazin-1-yl)[1-(trifluoromethyl)cyclopropyl]methanone]
Second: Cc1nccc(-c2ccc3nc(Nc4cc(CN5CCN(C(=O)C6CC6)CC5)ccn4)[nH]c3c2)n1 [Example 24.01.03, cyclopropyl{4-[(2-{[6-(2-methylpyrimidin-4-yl)-1H-benzimidazol-2-yl]amino}pyridin-4-yl)methyl]piperazin-1-yl}methanone]
The IC50 of the first is 13-fold lower: 3.3 nM for the first, 43.2 nM for the second. The first is the more potent here.

Compared with `COc1nnccc1-c1ccc2nc(Nc3cc(CN4CCN(C(=O)C5CC5)CC4)ccn3)[nH]c2c1` [Example 46.01, cyclopropyl{4-[(2-{[6-(3-methoxypyridazin-4-yl)-1H-benzimidazol-2-yl]amino}pyridin-4-yl)methyl]piperazin-1-yl}methanone], `COc1cc(-c2ccc3nc(Nc4cc(CN5CCN(C(=O)C6CC6)CC5)ccn4)[nH]c3c2)c(F)cn1` [Example 03.01, cyclopropyl{4-[(2-{[6-(5-fluoro-2-methoxypyridin-4-yl)-1H-benzimidazol-2-yl]amino}pyridin-4-yl)methyl]piperazin-1-yl}methanone] is 6.1-fold higher in IC50: 32.5 nM for the first, 198 nM for the second.

`O=C(C1CC1)N1CCN(Cc2ccnc(Nc3nc4ccc(-c5ccsc5Cl)cc4[nH]3)c2)CC1` [Example 175.03, {4-[(2-{[6-(2-chlorothiophen-3-yl)-1H-benzimidazol-2-yl]amino}pyridin-4-yl)methyl]piperazin-1-yl}(cyclopropyl)methanone] and `O=C(C1CC1)N1CCN(Cc2ccnc(Nc3nc4ccc(-c5c(F)cncc5Cl)cc4[nH]3)c2)CC1` [Example 132.03, {4-[(2-{[6-(3-chloro-5-fluoropyridin-4-yl)-1H-benzimidazol-2-yl]amino}pyridin-4-yl)methyl]piperazin-1-yl}(cyclopropyl)methanone] are within 1.5-fold of each other in IC50: 223 nM for the first, 260 nM for the second.

Compared with `O=C(CC(F)(F)F)N1CCN(Cc2ccnc(Nc3nc4ccc(-c5cnn(CC(F)(F)F)c5)cc4[nH]3)c2)CC1` [Example 58.01.02, 3,3,3-trifluoro-1-(4-{[2-({6-[1-(2,2,2-trifluoroethyl)-1H-pyrazol-4-yl]-1H-benzimidazol-2-yl}amino)pyridin-4-yl]methyl}piperazin-1-yl)propan-1-one], `Cc1noc(-c2ccc3nc(Nc4cc(CN5CCN(C(=O)C6CCC6)CC5)ccn4)[nH]c3c2)n1` [Example 16.01.05, cyclobutyl{4-[(2-{[6-(3-methyl-1,2,4-oxadiazol-5-yl)-1H-benzimidazol-2-yl]amino}pyridin-4-yl)methyl]piperazin-1-yl}methanone] is 15-fold higher in IC50: 9.81 nM for the first, 146 nM for the second.

Going from `CC(c1ccnc(Nc2nc3ccc(-c4cnn(CC5(C)CC5)c4)cc3[nH]2)c1)N1CCN(C(=O)OC(C)(C)C)CC1` (single isomer, unassigned) [Example 68.01, tert-butyl 4-[(1R or 1S)-1-{2-[(6-{1-[(1-methylcyclopropyl)methyl]-1H-pyrazol-4-yl}-1H-benzimidazol-2-yl)amino]pyridin-4-yl}ethyl]piperazine-1-carboxylate] to `COc1c(-c2ccc3nc(Nc4cc(CN5CCN(C(=O)OC(C)(C)C)CC5)ccn4)[nH]c3c2)ncnc1N(C)C` [Example 107.01.01, tert-butyl 4-{[2-({6-[6-(dimethylamino)-5-methoxypyrimidin-4-yl]-1H-benzimidazol-2-yl}amino)pyridin-4-yl]methyl}piperazine-1-carboxylate], the IC50 rises from 26 nM to 52 nM (2-fold). The first is the more potent here.
